Measurements taken from ChEMBL document CHEMBL5053510, “Discovery of AS-1763: A Potent, Selective, Noncovalent, and Orally Available Inhibitor of Bruton's Tyrosine Kinase” (J Med Chem, 2021).
pIC50: −log10 of the molar value.

Target: Tyrosine-protein kinase BTK (Homo sapiens, UniProt Q06187)
Test: Inhibition of human BTK-A using phosphorylated substrate in presence of ATP by microplate reader assay

Chain of Tyrosine-protein kinase BTK (Q06187 whole entry): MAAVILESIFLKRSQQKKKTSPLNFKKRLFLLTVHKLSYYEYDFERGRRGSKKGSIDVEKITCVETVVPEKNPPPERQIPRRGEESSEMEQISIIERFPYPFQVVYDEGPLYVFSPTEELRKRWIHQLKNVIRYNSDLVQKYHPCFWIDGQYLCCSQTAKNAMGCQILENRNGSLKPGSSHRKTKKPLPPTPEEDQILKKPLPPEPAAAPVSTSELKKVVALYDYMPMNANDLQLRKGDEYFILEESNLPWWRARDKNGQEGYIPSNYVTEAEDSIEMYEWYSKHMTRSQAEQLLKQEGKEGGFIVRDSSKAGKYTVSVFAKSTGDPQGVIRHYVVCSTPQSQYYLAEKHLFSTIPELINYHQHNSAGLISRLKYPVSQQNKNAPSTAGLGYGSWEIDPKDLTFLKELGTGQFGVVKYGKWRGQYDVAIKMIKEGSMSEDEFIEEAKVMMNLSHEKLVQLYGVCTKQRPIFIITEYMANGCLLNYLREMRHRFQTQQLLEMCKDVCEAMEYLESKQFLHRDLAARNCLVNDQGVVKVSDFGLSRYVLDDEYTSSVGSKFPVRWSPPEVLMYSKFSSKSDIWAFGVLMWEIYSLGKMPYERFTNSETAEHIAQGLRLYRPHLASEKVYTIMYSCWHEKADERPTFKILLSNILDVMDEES

pIC50 | Structure (SMILES)
9.19 | Nc1nc(-c2cccc(-n3ccc4cc(C5CC5)cc(F)c4c3=O)c2CO)c2cc(C3=CCNCC3)[nH]c2n1
9.19 | CN1CCN(C(=O)N2CC=C(c3cc4c(-c5cccc(-n6ccc7cc(C8CC8)cc(F)c7c6=O)c5CO)nc(N)nc4[nH]3)CC2)CC1
9.15 | CC(=O)N1CC=C(c2cc3c(-c4cccc(-n5ccc6cc(C7CC7)cc(F)c6c5=O)c4CO)nc(N)nc3[nH]2)CC1
7.85 | Nc1nc(-c2cccc(-n3ccc4cc(C5CC5)cc(F)c4c3=O)c2CO)c2cc(-c3ccccc3)[nH]c2n1
7.31 | Cc1cc2c(-c3cccc(-n4ccc5cc(C6CC6)cc(F)c5c4=O)c3CO)nc(N)nc2[nH]1
8.59 | Nc1nc(-c2cccc(-n3ccc4cc(C5CC5)cc(F)c4c3=O)c2CO)c2cc(C3=CCCCC3)[nH]c2n1
